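Dose response: 5 concentrations. Exposure: 48 h. Format: 96-well plates. Endpoint: linear interpolation; highest concentration if not reached. TGI denotes the concentration required for complete inhibition of growth.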
What was measured:
Experiment in all cases: NCI tumour cell line growth inhibition, 48 h
DMS 114 small cell lung = test system: DMS 114 small cell lung
P388 leukemia = test system: P388 leukemia
SNB-78 CNS = test system: SNB-78 CNS
P388/ADR leukemia = test system: P388/ADR leukemia
SN12K1 renal = test system: SN12K1 renal
DLD-1 colon = test system: DLD-1 colon
HOP-18 NSCLC = test system: HOP-18 NSCLC
KM20L2 colon = test system: KM20L2 colon
DMS 273 small cell lung = test system: DMS 273 small cell lung
RXF-631 renal = test system: RXF-631 renal
LXFL 529 NSCLC = test system: LXFL 529 NSCLC

COc1cc2c(cc1O)N=C[C@@H]1CCC(O)N1C2=O (mixture of isomers)
TGI (DMS 114 small cell lung): 1.41 µM
TGI (P388 leukemia): 9.2 µM
TGI (SNB-78 CNS): 46.3 µM
TGI (P388/ADR leukemia): 5.15 µM
TGI (SN12K1 renal): 25 µM
TGI (DLD-1 colon): 13.5 µM
TGI (HOP-18 NSCLC): 3.39 µM
TGI (KM20L2 colon): 24.9 µM
TGI (DMS 273 small cell lung): 19.6 µM

C/C=C1/C(=O)O[C@]23C=C[C@@H]4C(C(=O)OC)=CO[C@H](O[C@@H]12)[C@@H]43
TGI (DMS 114 small cell lung): 2.82 µM
TGI (P388 leukemia): 1.83 µM
TGI (SNB-78 CNS): 23.6 µM
TGI (P388/ADR leukemia): 2.41 µM
TGI (SN12K1 renal): 3.22 µM
TGI (DLD-1 colon): 2.94 µM
TGI (HOP-18 NSCLC): 10.4 µM
TGI (KM20L2 colon): 15.4 µM
TGI (DMS 273 small cell lung): 39.9 µM

CC1CC(c2ccc([N+](=O)[O-])cc2)=Nc2ccccc2S1=O (configuration not stated)
TGI (DMS 114 small cell lung): 33.2 µM
TGI (SNB-78 CNS): > 100 µM
TGI (RXF-631 renal): 52.6 µM
TGI (DLD-1 colon): 33.6 µM
TGI (KM20L2 colon): 29.9 µM
TGI (DMS 273 small cell lung): 42.7 µM

O=c1cc(-c2cccc(Br)c2)[nH]c2cc3c(cc12)OCO3
TGI (DMS 114 small cell lung): 11 µM
TGI (SNB-78 CNS): 20.5 µM
TGI (DLD-1 colon): 31.2 µM
TGI (HOP-18 NSCLC): 46.7 µM
TGI (LXFL 529 NSCLC): 18.6 µM
TGI (DMS 273 small cell lung): 22.4 µM

Nc1nc2c(ncn2CC(CO)CC(c2ccccc2)P(=O)(O)O)c(=O)[nH]1 (configuration not stated)
TGI (DMS 114 small cell lung): > 100 µM
TGI (SNB-78 CNS): > 100 µM
TGI (DLD-1 colon): > 100 µM
TGI (HOP-18 NSCLC): > 100 µM
TGI (LXFL 529 NSCLC): > 100 µM
TGI (KM20L2 colon): > 100 µM
TGI (DMS 273 small cell lung): > 100 µM

CCN1CCC(O)(/C=C/c2ccc(Cl)cc2)C(C(=O)/C=C/c2ccc(Cl)cc2)C1 (configuration not stated)
TGI (DMS 114 small cell lung): > 100 µM
TGI (SNB-78 CNS): > 100 µM
TGI (DLD-1 colon): 33.8 µM
TGI (LXFL 529 NSCLC): 28 µM
TGI (KM20L2 colon): 99.3 µM
TGI (DMS 273 small cell lung): 60.2 µM

NCCSc1nc(N)c2ncn(C3OC(CO)C(O)C3O)c2n1 (configuration not stated)
TGI (DMS 114 small cell lung): > 100 µM
TGI (SNB-78 CNS): > 100 µM
TGI (DLD-1 colon): > 100 µM
TGI (HOP-18 NSCLC): > 100 µM
TGI (KM20L2 colon): > 100 µM
TGI (DMS 273 small cell lung): > 100 µM

O=c1[nH]c(Br)nc2c(N3CCCCC3)c[nH]c12
TGI (DMS 114 small cell lung): > 100 µM
TGI (SNB-78 CNS): > 100 µM
TGI (DLD-1 colon): > 100 µM
TGI (HOP-18 NSCLC): > 100 µM
TGI (LXFL 529 NSCLC): > 100 µM
TGI (KM20L2 colon): > 100 µM
TGI (DMS 273 small cell lung): > 100 µM

C#CC1(O)CC(c2ccccc2)N(C)C(c2ccccc2)C1 (configuration not stated)
TGI (DMS 114 small cell lung): > 100 µM
TGI (SNB-78 CNS): > 100 µM
TGI (RXF-631 renal): > 100 µM
TGI (LXFL 529 NSCLC): > 100 µM
TGI (KM20L2 colon): > 100 µM
TGI (DMS 273 small cell lung): > 100 µM

Cc1ccc(C(=O)C(C)N)cc1C (configuration not stated)
TGI (DMS 114 small cell lung): > 100 µM
TGI (RXF-631 renal): > 100 µM
TGI (DLD-1 colon): > 100 µM
TGI (LXFL 529 NSCLC): > 100 µM
TGI (KM20L2 colon): > 100 µM

From PubChem BioAssay (NCI)
